Tests used:
HIV LTR = experiment: DMSO induction of HIV LTR-driven luciferase expression in transgenic mice; assay type: in vivo, mouse
Excerpt: Transgenic mice containing a construct composed of the regulatory portion of the HIV LTR (U3 region) upstream of the coding sequence of the firefly luciferase gene were generated and evaluated for the emission of photons after transmission through tissues. A diagram of the construct is shown at the bottom of FIG. 13. Numbers along the construct indicate nucleotide positions relative to the start of transcription. Sequences matching known motifs of cellular transcription factors are indicated with the names of the factors. Transcription from the HIV LTR was activated in the right ear of each two animals with a single topical application of dimethyl sulfoxide (DMSO). The animal on the left in FIG. 13 was given 150 μl of an aqueous solution of the substrate luciferin (50 mg/ml) via intraperitoneal (i.p.) injection. The animal on the right was not given substrate. 20 min. post treatment with substrate the animals were imaged as described for the plate in FIG. 12 with a 20 min. integration time. […] This technology allows for the temporal and spatial analyses of transcriptional activity in living animals.
The left half of the shaved dorsal surface of the transgenic animals and the left ear were treated twice daily for two days with DMSO to activate expression of the HIV-1 LTR. Luciferin was applied topically over the entire surface of the back and both ears, and animals were imaged immediately after addition of substrate.
This signal is assumed to be due to ingestion of DMSO during grooming (FIG. 17).

SL1344lux Salmonella = experiment: Effects of ciprofloxacin treatment on bioluminescence from SL1344lux Salmonella in orally inoculated mice; assay type: in vivo, Salmonella typhimurium
Protocol: Effects of Ciprofloxacin on Salmonella Infection. […] Mice are orally inoculated with SL1344lux and treated with […] of ciprofloxacin, an antibiotic effective against Salmonella infections. The mice are imaged at selected time periods following treatment, and the extent of infection is quantitated by measuring photon emission. Photon emission in treated mice is compared to values before the initiation of treatment, and to values from control mice that had been infected, but not treated. Results from one such experiment are shown in FIGS. 11A, 11B, 11C, 11D, and 11E and discussed in Example 10.
Animals or objects to be imaged were immobilized in a light-tight box containing a door and a charge-coupled device (CCD) camera with a two stage microchannel intensifier head (model C2400-40, Hamamatsu). The camera was attached, via cables leading out of the box, to an “ARGUS 50” image processor (Hamamatsu).
Bioluminescence images were generated by integrating photons for a selected period of time, typically 5 minutes. […]
FIGS. 11B and 11D show composite images of representative animals from the control and treated groups, respectively, immediately before initiation of treatment of the experimental group. […] The total number of photons detected over the abdominal area were determined, normalized to the value at t=0, and plotted in FIG. 11A with respect to time post-treatment.

[1] = tested on: dermal cells in transgenic mice
Protocol: In order to optimize delivery of substrate, the substrate was topically delivered to dermal cells. The HIV LTR was induced in the skin of mice with twice daily treatments of DMSO over the entire surface of the back and the right ear for two consecutive days. Substrate was applied to the skin in solutions prepared in DMSO. Concentrations included 200 mM, 100 mM, 50 mM, 25 mM, and 12.5 mM. 5 μl of each concentration were spotted, in quadruplicate, on the backs using a multichannel pipette with the highest concentrations near the head. 5 μl of the 50 mM solution was applied to each ear. 2 min. after application the animal was imaged as described in FIG. 12. […] Solutions of 25% H2O in DMSO to 100% H2O were tested.
The experiment of induction of luciferase expression in ears and systemic luciferin delivery of Example 14 was repeated with topical administration of substrate in 100% DMSO (FIG. 15). […] See, FIGS. 13 and 15.

C[S+](C)[O-] [DMSO, dimethyl sulfoxide]
Bioluminescence from internal tissues (HIV LTR; animals treated with DMSO on one ear only): Bioluminescence was detectable from the abdomens | Bioluminescence after unilateral DMSO treatment (HIV LTR; left half of shaved dorsal surface and left ear treated twice daily for two days, luciferin topical over back and both ears): Unilateral emission of bioluminescence corresponding to the induced region | Bioluminescence from the DMSO-induced ear (HIV LTR; single topical application of DMSO on right ear, luciferin 150 μl of 50 mg/ml i.p., imaged 20 min. post substrate): light emission over the right ear

O=C(O)c1cn(C2CC2)c2cc(N3CCNCC3)c(F)cc2c1=O [ciprofloxacin]
Bioluminescence over the abdomen (SL1344lux Salmonella; Balb/c mice orally inoculated with SL1344lux, at 8 days p.i. 100 mg ciprofloxacin hydrochloride i.p. (3 mg/kg body weight), 5.5 h after initiation of treatment): reduced to undetectable levels | Infection (photon emission) compared to time zero and to untreated control mice (SL1344lux Salmonella; mice orally inoculated with SL1344lux, treated with 100 mg of ciprofloxacin): significantly reduced

O=C(O)[C@H]1CSC(c2nc3ccc(O)cc3s2)=N1 [luciferin]
Bioluminescence from spots containing 200 mM luciferin ([1]; 5 μl spots in DMSO on DMSO-induced back skin): roughly equivalent to that from the 100 mM spots | Bioluminescent response versus topical luciferin concentration ([1]; 5 μl spots of luciferin in DMSO on DMSO-induced back skin, imaged 2 min. after application): increase linearly over the concentrations from 12.5 mM to 100 mM | Bioluminescence from solutions of luciferin containing water ([1]; mouse, in vivo): no detectable bioluminescence | Time of peak light emission, systemic substrate ([1]; mouse, in vivo): 20 to 30 min | Time of peak light emission, topical substrate ([1]; mouse, in vivo): immediately after topical treatment

Reference: patent publication US6923951B2, “Non-invasive localization of a light-emitting conjugate in a mammal” (priority 1994, dated 2005)
